Test results: ChEMBL document CHEMBL1201862, “PubChem BioAssay data set” (2004)
Calls of active or inactive are those of the source.

What was measured:
Aminopeptidase N = biological target: T1, Aminopeptidase N (Plasmodium falciparum FcB1/Columbia, UniProt O96935); assay: malaria alanyl aminopeptidase activity blockers – biochemical, fluorogenic H-Leu-NHMec substrate, 1536-well (AID 1445); set-up: species or system Plasmodium falciparum 3D7, 3D7
T1 sequence (O96935 whole entry): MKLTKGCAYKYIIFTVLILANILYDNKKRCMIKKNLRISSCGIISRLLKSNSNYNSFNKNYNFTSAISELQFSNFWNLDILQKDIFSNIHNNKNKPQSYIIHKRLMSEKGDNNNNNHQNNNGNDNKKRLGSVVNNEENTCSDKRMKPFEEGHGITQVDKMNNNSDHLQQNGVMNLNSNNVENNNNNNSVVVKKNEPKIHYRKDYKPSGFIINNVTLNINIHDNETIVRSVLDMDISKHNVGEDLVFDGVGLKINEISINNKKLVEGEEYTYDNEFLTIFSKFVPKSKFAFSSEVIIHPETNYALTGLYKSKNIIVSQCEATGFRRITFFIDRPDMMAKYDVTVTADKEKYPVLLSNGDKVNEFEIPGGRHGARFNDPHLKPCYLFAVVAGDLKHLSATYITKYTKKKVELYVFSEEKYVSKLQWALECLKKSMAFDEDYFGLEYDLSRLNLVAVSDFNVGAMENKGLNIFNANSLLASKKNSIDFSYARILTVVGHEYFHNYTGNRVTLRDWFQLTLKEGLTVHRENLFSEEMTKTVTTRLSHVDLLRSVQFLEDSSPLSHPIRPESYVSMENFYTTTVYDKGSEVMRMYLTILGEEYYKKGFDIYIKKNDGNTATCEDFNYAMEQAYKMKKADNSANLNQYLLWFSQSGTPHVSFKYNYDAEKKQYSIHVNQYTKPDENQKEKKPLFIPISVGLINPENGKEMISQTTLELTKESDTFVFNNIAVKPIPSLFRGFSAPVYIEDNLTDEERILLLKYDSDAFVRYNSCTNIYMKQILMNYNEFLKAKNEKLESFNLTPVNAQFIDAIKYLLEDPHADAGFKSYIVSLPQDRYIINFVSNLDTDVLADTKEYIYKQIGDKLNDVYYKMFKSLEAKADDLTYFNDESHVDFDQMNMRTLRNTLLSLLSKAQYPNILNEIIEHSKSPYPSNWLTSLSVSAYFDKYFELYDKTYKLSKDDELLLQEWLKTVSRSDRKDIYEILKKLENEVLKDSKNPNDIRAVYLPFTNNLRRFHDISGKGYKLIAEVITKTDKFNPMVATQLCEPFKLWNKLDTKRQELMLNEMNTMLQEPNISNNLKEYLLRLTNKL

[1] = tested on: Streptococcus sp. 'group A'; assay: Streptococcus pyogenes SK(-)GAS viability under kanamycin – luminescence, BacTiterGlo, confirmation, counter-screen for streptokinase expression inhibitor project, dose response (AID 1900); assay type: functional, organism-based
Streptokinase A = biological target: T2, Streptokinase A (Streptococcus pyogenes serotype M1, UniProt P10520); assay: viability-normalized secreted streptokinase activity reduction – plasminogen activation absorbance, OD405, dose response (AID 1914); assay type: functional, Streptococcus pyogenes M1 GAS;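 also: secreted streptokinase activity via plasminogen activation per viability signal from cell pellet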
T2 sequence (P10520 whole entry): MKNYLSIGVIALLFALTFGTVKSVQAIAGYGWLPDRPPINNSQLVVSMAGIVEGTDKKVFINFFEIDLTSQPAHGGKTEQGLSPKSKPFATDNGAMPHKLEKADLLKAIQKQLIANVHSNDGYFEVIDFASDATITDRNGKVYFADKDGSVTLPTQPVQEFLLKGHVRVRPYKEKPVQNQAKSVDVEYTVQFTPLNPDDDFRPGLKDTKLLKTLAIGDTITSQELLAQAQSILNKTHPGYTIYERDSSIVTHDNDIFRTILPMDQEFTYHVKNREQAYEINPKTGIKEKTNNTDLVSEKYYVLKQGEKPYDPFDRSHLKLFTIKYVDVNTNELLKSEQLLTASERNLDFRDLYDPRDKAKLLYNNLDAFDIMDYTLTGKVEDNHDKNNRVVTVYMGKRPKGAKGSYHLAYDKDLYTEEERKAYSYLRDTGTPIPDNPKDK

Streptococcus = assay: GAS UMAA2166 growth inhibition – luminescence, BacTiterGlo, counter-screen for streptokinase expression inhibitor project, dose response (AID 1915); assay type: functional, organism-based;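 also: potency for reduction of bacterial viability or growth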
[2] = biological target: T3, High affinity choline transporter 1 (Homo sapiens, UniProt Q9GZV3); assay: human choline transporter blockers, potency – cell-based, 5-point CRC, membrane potential dye, dose response (AID 504840); assay type: functional
T3 sequence (Q9GZV3 whole entry): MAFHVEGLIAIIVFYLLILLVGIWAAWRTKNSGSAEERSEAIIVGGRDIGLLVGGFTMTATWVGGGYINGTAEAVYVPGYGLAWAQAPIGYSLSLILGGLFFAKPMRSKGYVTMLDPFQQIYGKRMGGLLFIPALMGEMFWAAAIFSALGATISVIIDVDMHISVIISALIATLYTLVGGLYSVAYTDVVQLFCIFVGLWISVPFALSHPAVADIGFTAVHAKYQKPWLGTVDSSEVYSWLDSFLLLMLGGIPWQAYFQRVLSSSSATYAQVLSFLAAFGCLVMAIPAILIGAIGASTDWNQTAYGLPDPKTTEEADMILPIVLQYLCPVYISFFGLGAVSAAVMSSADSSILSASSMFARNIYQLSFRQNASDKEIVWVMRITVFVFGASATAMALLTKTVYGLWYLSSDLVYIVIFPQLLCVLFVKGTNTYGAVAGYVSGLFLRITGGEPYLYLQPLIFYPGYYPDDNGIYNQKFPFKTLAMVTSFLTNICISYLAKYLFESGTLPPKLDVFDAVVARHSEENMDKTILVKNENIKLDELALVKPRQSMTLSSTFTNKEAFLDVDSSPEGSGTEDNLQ

[3] = biological target: T3, High affinity choline transporter 1; assay: human choline transporter blockers, potency – cell-based, 10-point CRC, membrane potential dye, dose response (AID 588401); assay type: functional;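 also: membrane potential dye fluorescence of choline-evoked depolarization via CHT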
Genome polyprotein = Genome polyprotein (dengue virus type 2, UniProt P29990); assay: flavivirus cap methylation enzyme inhibition – biochemical, confirmation dose response, primary screen (AID 588689); assay type: functional
[4] = biological target: T4, Heat shock factor protein 1 (Mus musculus, UniProt P38532); assay: decrease of HSF1-responsive luciferase luminescence – cell-based, NIH3T3, dose retest, confirmation (AID 2382); assay type: functional;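 also: NIH3T3 fibroblasts with HSF1-driven luciferase reporter stressed by proteasome inhibitor MG132; luminescence from HSF1-driven luciferase expression after 8 hours of MG132 stress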
T4 sequence (P38532 whole entry): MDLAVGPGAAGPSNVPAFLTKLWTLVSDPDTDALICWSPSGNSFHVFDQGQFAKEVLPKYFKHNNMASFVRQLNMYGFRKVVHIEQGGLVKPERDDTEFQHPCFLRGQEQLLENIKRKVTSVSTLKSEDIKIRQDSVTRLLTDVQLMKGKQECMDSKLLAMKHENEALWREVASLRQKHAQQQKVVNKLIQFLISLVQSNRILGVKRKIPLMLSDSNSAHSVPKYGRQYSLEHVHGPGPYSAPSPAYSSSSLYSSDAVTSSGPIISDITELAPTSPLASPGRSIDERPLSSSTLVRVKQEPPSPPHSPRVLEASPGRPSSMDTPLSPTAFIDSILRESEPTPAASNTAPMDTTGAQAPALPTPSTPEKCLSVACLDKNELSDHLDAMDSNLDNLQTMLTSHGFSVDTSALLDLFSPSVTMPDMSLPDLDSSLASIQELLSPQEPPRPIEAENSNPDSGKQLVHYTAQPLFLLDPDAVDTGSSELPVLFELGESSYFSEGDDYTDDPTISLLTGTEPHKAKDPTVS

[5] = biological target: T5, Sentrin-specific protease 8 (Homo sapiens, UniProt Q96LD8); assay type: functional
T5 sequence (Q96LD8 whole entry): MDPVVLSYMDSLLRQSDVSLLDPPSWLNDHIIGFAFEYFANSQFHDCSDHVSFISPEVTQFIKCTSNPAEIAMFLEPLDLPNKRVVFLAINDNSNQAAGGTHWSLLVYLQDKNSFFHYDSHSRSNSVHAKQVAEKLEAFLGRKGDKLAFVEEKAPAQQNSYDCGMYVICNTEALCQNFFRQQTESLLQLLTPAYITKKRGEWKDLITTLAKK

[6] = biological target: T5, Sentrin-specific protease 8; assay type: functional; remark: listed apart in the source
Caspase-6 = biological target: T6, Caspase-6 (Homo sapiens, UniProt P55212); assay: inhibition of CASP6 peptide cleavage – biochemical, VEID-R110 fluorescence, cherry-pick, dose response (AID 720632)
T6 sequence (P55212 whole entry): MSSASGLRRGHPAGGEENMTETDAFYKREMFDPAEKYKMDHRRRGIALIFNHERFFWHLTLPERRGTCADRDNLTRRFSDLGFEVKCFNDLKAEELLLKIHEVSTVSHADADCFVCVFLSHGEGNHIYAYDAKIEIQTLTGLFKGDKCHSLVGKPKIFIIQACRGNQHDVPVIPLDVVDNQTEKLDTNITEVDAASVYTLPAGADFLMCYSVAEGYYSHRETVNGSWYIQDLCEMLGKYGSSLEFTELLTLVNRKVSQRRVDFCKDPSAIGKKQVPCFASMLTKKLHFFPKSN

[7] = bead-based luminescence quenchers, dual-tagged ARNT – biochemical, AlphaScreen, cherry-pick, artefact control for ARNT-TACC3 interaction inhibitor project, dose response (AID 651705); assay type: functional;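 also: AlphaScreen bead proximity signal that flags compounds interfering with the detection technology; potency reflects signal decrease which marks the compound as an assay artifact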
[8] = biological target: Tyrosine-protein phosphatase non-receptor type 11 (Homo sapiens, UniProt Q06124); assay: PTPN11 enzyme inhibitors – biochemical, selectivity assay for STEP inhibitor project, dose response (AID 602367); assay type: functional; settings: read-out: IC50_Mean
Sequence of Tyrosine-protein phosphatase non-receptor type 11 (Q06124 whole entry): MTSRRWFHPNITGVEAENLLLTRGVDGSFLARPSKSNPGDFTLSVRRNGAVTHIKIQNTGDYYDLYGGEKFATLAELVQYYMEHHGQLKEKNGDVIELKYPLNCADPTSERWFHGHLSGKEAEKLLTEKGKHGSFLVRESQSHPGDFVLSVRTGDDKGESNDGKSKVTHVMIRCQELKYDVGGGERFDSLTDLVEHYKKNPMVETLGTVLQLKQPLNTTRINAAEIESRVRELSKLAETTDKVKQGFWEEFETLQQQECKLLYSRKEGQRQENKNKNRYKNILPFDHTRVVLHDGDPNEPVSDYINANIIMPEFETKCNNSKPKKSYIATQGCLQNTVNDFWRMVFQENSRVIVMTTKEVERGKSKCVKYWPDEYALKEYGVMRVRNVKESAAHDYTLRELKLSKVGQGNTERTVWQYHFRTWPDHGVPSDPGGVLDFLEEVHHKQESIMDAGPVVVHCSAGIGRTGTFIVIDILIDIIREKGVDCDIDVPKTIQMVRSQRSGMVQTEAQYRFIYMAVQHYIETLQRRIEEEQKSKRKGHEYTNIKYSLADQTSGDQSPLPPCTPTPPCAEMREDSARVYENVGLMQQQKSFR

[9] = biological target: Tyrosine-protein phosphatase non-receptor type 5 (Homo sapiens, UniProt P54829); assay: PTPN5 enzyme inhibition – biochemical, fluorescence intensity, uHTS hits, confirmation (AID 602372); assay type: functional; settings: read-out: IC50_Mean
Sequence of Tyrosine-protein phosphatase non-receptor type 5 (P54829 whole entry): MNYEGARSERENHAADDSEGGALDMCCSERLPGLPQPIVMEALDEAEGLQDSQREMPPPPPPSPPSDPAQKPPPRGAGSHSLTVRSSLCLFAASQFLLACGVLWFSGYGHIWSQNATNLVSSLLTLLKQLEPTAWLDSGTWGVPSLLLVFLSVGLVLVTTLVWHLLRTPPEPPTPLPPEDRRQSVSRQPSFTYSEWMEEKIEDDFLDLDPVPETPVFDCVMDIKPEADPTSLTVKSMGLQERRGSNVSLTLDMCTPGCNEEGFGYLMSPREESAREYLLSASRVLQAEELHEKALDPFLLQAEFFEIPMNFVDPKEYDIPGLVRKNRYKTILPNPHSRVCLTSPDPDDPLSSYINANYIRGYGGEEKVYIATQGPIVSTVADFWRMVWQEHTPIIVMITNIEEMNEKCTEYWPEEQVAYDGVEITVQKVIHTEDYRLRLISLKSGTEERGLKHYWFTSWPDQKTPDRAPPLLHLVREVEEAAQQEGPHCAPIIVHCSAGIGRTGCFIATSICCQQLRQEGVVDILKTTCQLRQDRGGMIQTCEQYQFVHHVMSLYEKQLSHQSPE

[10] = biological target: Dual specificity protein phosphatase 3 (Homo sapiens, UniProt P51452); assay: VHR phosphatase inhibition, dose response, selectivity assay for STEP inhibitor project, biochemical (AID 602374); assay type: functional; settings: read-out: IC50_Mean
Sequence of Dual specificity protein phosphatase 3 (P51452 whole entry): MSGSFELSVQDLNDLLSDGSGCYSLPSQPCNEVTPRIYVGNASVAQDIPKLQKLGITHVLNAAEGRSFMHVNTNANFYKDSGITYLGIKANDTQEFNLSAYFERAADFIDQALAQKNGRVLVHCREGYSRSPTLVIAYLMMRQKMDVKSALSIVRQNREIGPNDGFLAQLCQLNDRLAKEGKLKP

[11] = biological target: T7, Beta-2 adrenergic receptor (Homo sapiens, UniProt P07550); assay: Dose response for HTS for Beta-2AR agonists via FAP method from Powderset1.; assay type: functional
T7 sequence (P07550 whole entry): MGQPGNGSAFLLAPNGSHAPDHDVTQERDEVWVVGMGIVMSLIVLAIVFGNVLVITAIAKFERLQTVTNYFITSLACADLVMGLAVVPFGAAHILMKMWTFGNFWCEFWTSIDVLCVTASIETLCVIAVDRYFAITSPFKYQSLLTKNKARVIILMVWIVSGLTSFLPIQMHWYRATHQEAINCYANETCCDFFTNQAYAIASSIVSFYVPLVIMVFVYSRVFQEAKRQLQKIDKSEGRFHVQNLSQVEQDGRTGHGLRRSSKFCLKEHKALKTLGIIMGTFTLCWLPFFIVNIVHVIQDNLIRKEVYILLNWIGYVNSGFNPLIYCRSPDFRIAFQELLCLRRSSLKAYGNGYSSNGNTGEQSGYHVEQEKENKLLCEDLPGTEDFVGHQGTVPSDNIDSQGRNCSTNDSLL

[12] = biological target: T7, Beta-2 adrenergic receptor; assay: ADRB2 activation measured by internalization – cell-based, FAP fluorogen, flow cytometry, cherry pick 1, dose response (AID 588763); assay type: functional
[13] = biological target: Arf-GAP with SH3 domain, ANK repeat and PH domain-containing protein 1 (Homo sapiens, UniProt Q9ULH1); assay type: functional;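 also: biochemical fluorescence polarization dose–response screen measuring inhibition of ASAP1; ASAP1 GAP domain stimulating GTP hydrolysis by truncated human ARF1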
Sequence of Arf-GAP with SH3 domain, ANK repeat and PH domain-containing protein 1 (Q9ULH1 whole entry, the tested form may be a part): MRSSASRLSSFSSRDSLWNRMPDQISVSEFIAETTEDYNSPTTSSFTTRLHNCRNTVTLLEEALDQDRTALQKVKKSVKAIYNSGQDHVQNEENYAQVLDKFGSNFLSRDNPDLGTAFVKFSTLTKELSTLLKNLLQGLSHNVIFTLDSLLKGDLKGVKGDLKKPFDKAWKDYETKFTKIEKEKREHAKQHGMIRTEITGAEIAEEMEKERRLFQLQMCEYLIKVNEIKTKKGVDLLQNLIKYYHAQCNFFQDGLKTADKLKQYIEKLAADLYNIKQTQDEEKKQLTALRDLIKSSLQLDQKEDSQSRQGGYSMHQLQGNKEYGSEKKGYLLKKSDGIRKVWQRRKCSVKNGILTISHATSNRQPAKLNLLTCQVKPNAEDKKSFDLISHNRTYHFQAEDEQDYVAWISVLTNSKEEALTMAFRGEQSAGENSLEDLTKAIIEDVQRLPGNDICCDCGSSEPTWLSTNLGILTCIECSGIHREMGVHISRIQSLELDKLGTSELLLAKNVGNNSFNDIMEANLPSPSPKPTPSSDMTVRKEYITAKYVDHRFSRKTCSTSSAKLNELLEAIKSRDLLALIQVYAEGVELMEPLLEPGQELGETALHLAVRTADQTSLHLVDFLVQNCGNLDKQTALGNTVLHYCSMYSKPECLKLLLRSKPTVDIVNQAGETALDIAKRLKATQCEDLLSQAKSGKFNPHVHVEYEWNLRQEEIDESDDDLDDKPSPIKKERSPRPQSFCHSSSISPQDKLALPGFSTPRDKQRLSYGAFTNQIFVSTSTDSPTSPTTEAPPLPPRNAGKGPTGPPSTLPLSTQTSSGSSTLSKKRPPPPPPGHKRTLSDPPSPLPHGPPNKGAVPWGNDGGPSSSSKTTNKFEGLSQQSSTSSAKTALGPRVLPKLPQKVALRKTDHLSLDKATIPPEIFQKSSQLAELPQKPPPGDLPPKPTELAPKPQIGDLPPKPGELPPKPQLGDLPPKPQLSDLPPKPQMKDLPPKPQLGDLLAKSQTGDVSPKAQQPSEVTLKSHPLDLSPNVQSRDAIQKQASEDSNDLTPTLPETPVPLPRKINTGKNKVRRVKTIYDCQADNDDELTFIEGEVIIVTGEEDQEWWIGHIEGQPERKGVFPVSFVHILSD

Vero = assay: mammalian cell viability reduction – secondary assay, cytotoxicity control for West Nile virus antiviral project, dose response (AID 1650); assay type: functional; settings: Chlorocebus sabaeus
[14] = biological target: SWI/SNF-related matrix-associated actin-dependent regulator of chromatin subfamily A member 2 (Homo sapiens, UniProt P51531); assay: Luminescence-based cell-based high throughput dose response assay to identify activators of the function of SWI/SNF related, matrix associated, actin dependent regulator of chromatin, subfamily a, member 2 (SMARCA2, BRM).; assay type: functional
Sequence of SWI/SNF-related matrix-associated actin-dependent regulator of chromatin subfamily A member 2 (P51531 whole entry): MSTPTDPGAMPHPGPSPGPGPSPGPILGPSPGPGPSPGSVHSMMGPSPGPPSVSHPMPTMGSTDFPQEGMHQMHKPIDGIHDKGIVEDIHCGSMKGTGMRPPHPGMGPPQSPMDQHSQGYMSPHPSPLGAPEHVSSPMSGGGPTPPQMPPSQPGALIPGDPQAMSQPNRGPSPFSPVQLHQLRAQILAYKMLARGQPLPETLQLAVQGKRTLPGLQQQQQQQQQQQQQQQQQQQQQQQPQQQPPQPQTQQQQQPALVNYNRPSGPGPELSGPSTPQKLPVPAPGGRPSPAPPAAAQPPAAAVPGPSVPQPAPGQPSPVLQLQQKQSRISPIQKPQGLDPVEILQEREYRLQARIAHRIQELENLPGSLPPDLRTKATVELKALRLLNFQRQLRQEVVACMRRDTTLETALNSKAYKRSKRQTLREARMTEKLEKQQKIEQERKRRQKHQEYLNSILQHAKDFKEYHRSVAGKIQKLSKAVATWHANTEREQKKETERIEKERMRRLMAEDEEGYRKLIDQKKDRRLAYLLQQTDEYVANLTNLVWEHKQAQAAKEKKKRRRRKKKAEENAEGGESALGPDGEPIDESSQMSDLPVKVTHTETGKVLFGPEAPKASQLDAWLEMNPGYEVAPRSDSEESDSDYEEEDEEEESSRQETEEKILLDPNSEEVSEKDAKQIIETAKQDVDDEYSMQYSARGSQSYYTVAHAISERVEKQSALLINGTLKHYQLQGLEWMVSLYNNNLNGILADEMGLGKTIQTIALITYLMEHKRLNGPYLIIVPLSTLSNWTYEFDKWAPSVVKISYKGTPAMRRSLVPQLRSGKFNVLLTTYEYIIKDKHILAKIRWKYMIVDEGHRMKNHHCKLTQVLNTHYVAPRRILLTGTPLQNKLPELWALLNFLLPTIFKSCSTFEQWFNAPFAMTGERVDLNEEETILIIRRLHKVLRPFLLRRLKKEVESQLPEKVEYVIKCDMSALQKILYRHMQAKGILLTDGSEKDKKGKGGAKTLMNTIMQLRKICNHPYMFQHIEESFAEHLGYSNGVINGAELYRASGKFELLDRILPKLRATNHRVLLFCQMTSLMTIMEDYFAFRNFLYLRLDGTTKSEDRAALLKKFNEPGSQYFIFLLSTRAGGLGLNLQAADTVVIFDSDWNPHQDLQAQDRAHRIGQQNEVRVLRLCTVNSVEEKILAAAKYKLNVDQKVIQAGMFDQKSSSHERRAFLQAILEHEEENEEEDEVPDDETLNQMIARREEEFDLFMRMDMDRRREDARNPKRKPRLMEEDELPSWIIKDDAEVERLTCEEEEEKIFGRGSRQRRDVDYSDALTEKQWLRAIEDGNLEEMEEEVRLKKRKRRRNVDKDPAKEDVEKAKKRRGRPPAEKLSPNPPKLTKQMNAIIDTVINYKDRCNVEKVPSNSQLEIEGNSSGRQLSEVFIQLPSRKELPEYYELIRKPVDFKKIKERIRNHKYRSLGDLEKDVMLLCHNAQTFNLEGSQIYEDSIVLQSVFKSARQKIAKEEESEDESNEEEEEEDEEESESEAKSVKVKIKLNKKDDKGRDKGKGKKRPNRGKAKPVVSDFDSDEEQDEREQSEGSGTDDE

[15] = Counterscreen for activators of the function of SWI/SNF related, matrix associated, actin dependent regulator of chromatin, subfamily a, member 2 (SMARCA2, BRM): Luminescence-based cell-based high throughput dose response assay to identify non-selective compounds using the VP16 reporter assay.; assay type: functional
[16] = biological target: T8, DNA repair protein RAD52 homolog (Homo sapiens, UniProt P43351); assay type: functional, biochemical
T8 sequence (P43351 whole entry): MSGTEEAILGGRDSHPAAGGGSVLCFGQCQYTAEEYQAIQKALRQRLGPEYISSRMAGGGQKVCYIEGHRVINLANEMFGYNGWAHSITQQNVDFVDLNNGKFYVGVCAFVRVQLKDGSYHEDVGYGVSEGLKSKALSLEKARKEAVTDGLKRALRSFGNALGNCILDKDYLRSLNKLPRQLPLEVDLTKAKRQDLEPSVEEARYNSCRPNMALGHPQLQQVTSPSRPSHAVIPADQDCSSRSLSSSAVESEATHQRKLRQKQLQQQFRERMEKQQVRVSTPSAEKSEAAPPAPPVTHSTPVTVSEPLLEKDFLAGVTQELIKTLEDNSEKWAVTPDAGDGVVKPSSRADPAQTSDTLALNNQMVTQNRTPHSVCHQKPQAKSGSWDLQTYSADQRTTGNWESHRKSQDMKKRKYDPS

Melanocortin receptor 4 = Melanocortin receptor 4 (Homo sapiens, UniProt P32245); assay type: functional, cell-based;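 also: Cell-based assay with luminescence read-out, confirmatory dose-response testing for agonist activity of biased ligands at MC4R; human U2OS cells with tagged receptor and beta-arrestin; potency of agonists that increase receptor coupling to beta-arrestin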
Sequence of Melanocortin receptor 4 (P32245 whole entry): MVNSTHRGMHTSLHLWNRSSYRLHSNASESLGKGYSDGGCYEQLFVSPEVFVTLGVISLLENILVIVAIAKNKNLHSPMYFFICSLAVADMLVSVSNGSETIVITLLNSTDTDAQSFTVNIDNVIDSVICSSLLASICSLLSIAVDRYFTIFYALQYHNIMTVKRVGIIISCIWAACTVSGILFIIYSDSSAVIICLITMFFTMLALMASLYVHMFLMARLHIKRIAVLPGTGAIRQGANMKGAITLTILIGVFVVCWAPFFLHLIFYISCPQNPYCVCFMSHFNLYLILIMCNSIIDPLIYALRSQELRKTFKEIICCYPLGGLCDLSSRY

COc1cc(/C=C2\SC(NS(=O)(=O)c3ccccc3)=NC2=O)c([N+](=O)[O-])cc1OC
IC50 (Aminopeptidase N): 25.5 µM (active) | EC50 [1]: 25.6 µM (active) | EC50 (Streptokinase A): > 150 µM (not active) | EC50 (Streptococcus): > 150 µM (not active) | IC50 [2]: 4.17 µM (active) | IC50 [3]: 8.91 µM (active) | IC50 (Genome polyprotein): 43.4 µM (active)

O=C1Cc2ccccc2C(=O)N1c1cccc(Cl)c1
EC50 [4]: > 195 µM (not active) | IC50 [5]: > 100 µM (inactive) | IC50 [6]: 6.08 µM (active) | AC50 (Caspase-6): 35.6 µM (active)

O=C(CSc1ccc(-c2ccccn2)nn1)c1ccc([N+](=O)[O-])cc1
AC50 [7]: 131 µM (active)

COc1ccc(NC(=S)N(CCCN2CCC(C)CC2)Cc2cccs2)cc1Cl
IC50 [8]: 6.76 µM (active) | IC50 [9]: 55.6 µM (inactive) | IC50 [10]: 4.18 µM (active)

CCOC(=O)N1CCN(C(=O)CN(C)S(=O)(=O)c2ccc(Cl)cc2)CC1
EC50 [11]: 987 nM (active) | EC50 [12]: 1.95 µM (active)

COc1cccc(-n2nnc3c(=O)n(Cc4ccc(Br)cc4)cnc32)c1
IC50 [13]: 24.7 µM (inactive)

Cc1ccc(SCC(=O)Nc2ccc(-c3nc4ccccc4[nH]3)cc2)cc1
EC50 [11]: 6.82 nM (active) | EC50 [12]: 0.0116 µM (active)

O=C1c2ccccc2C(=O)c2c(NCCCN(CCO)CCO)cccc21
IC50 (Aminopeptidase N): 77.7 µM (active) | CC50 (Vero): 13.9 µM (active) | EC50 [14]: > 10.1 µM (inactive) | EC50 [15]: > 91.2 µM (inactive) | AC50 [16]: 977 nM (active)

COc1ccc2nc(NC(=O)CSc3nc4cccnc4n3C)sc2c1
EC50 (Melanocortin receptor 4): > 89.2 µM (inactive)

Clc1ccc(Cl)c(-c2nc(-c3ccncc3)no2)c1
IC50 [8]: 6.55 µM (active) | IC50 [9]: > 80 µM (inactive) | IC50 [10]: 25.4 µM (inactive)

COC(=O)N/N=C1/C/C(=N\NC(=O)OC)c2ccccc21
IC50 [5]: 0.557 µM (active) | IC50 [6]: 0.365 µM (active) | AC50 (Caspase-6): 4.22 µM (active)
